This note sets out measurements from patent US12528803B2, “Inhibitors of αvβ6 integrin” (Morphic Therapeutic, Inc., priority 2018, dated 2026).

As a reminder, the Papp A→B is how fast a substance crosses the layer from the apical side. A higher Papp A→B goes with fast passage.

A value given as a limit tells only on which side of the number the result lay.

A short description of data set [1]: MDCK in vitro permeability assay (wild type MDCK cells, no inhibitor). Format: in vitro ADME, Canine. The conditions noted are these: dog, no Pgp inhibitor, apical to basolateral (A→B). As to the method: (§1) Compounds were tested for permeability in an MDCK permeability assay. This assay measures the ability of compounds to cross a layer of Madin-Darby Canine Kidney (MDCK) cells from the apical to basolateral side (A→B). This measurement is predictive of the ability of compounds to be absorbed in the gut following oral dosing, an essential characteristic of an orally administered small molecule integrin inhibitor drug.
(§2) The assay is run in two formats. One uses wild type MDCK cells with no inhibitor. This method works well in determining the passive permeability of compounds with low efflux by P-glyocprotein (Pgp), and was used to assess permeability of a Reference Compound having the chemical formula shown below.
(§3) Cell Culture and Maintenance: • Cell stock cultures (MDCK or MDCK MDR1) are maintained in MEM+10% FBS+1% NEAA, grown in 75 cm^2 tissue culture treated flasks and split (passed) 2 times weekly to maintain desired confluence. • For maintenance passage: trypsinized cells are routinely distributed into new flasks at a standard passage ratio of 1:20.
(§4) Seeding assay plates: MDCK assay plates are seeded with MDCK or MDCK MCR1 cells 3-4 days prior to running the assay. 24-well plates are seeded at a cell density of 0.88×10^5/well in a 400 μL apical chamber volume (2.2×10^5/mL) with a […] volume of growth medium to the 24-well basal chamber. […]

In data set [2] the test system is Madin-Darby Canine Kidney (MDCK) cells. The description is as above. The note with it: no Pgp inhibitor, apical to basolateral (A→B). The class given is in vitro ADME. As to the method: as §1, §2, §3, §4

For `O=C(O)CN1CCC(C(=O)N2CCC(c3ccc4c(n3)NCCC4)CC2)CC1` [Reference Compound], the Papp A→B at 90 min, 5 μM in data set [1] is below 0.23 ×10⁻⁶ cm/s. For the same molecule, in data set [2], the “MDCK (A->B)” value is on record as “less than 0.23”.
